{"source": "patent US20180066327A1", "about": "“Methods to Accelerate Wound Healing in Diabetic Subjects” (Joslin Diabetes Center, Inc., priority 2015, published 2018)", "format_in_all_cases": "cell-based, human", "key": {"[1]": {"system": "control fibroblasts", "assay": "VEGF protein secreted to the medium (ELISA)"}, "[2]": {"system": "Medalist fibroblasts", "assay": "IRS1 tyrosine phosphorylation immunoblot", "conditions": "100 nM insulin", "protocol": "(§1) Fibroblasts with passage≦5 were grown and expanded in 10 cm plate with DMEM supplemented with 10% FBS. Cells were stimulated with the conditions and compounds as indicated after overnight starvation in DMEM with 0.1% BSA without FBS. Cells were lysed and protein amounts were measured with BCA kit (Bio-Rad, Hercules, Calif.). Protein lysates (20-30 μg) were separated by SDS-PAGE, transferred, blocked and detected as we described before (Park et al., Mol Cell Biol. 2013 August; 33(16):3227-41). The signal intensity was quantified using ImageJ software (SynGene, Frederick, Md.). For immune precipitation, tissue lysates were incubated with the appropriate antibodies followed by the addition of protein A/G Sepharose beads (Santa Cruz Biotechnology, Inc., Santa Cruz, Calif.). The precipitated proteins were subjected to SDS-PAGE followed by immunoblotting with the appropriate antibodies as described before (Park et al., Mol Cell Biol. 2013 August; 33(16):3227-41)."}, "[3]": {"system": "control fibroblasts", "assay": "IRS1 tyrosine phosphorylation immunoblot", "conditions": "fibroblasts of controls, 100 nM insulin", "protocol": "as §1"}, "[4]": {"system": "Medalist fibroblasts", "assay": "p-AKT (Ser473) immunoblot", "conditions": "for p-AKT increase compared to untreated cells: Medalist fibroblasts, 100 nM insulin or 10 ng/ml PDGF-BB for 10 minutes; for p-AKT increase: 100 nM insulin 10 minutes", "protocol": "as §1"}, "[5]": {"system": "control fibroblasts", "assay": "p-AKT (Ser473) immunoblot", "conditions": "for p-AKT increase compared to untreated cells: 100 nM insulin or 10 ng/ml PDGF-BB for 10 minutes", "protocol": "as §1"}, "[6]": {"system": "Medalist fibroblasts", "assay": "VEGF mRNA by real-time PCR", "conditions": "fibroblasts from Medalists, 100 nM insulin", "protocol": "(§2) Real-time PCR was performed to evaluate mRNA expressions of VEGF, PDGF-B, Fibronectin, and PKCδ in cultured fibroblast and mice granulation tissue as we described before (Geraldes et al., Nat Med. 2009 November; 15(11):1298-306). PCR primers and probes are detailed in Table A. Human 36B4 or 18S ribosomal RNA expressions as indicated were used for normalization."}, "[7]": {"system": "control fibroblasts", "assay": "VEGF mRNA by real-time PCR", "conditions": "fibroblasts from controls, 100 nM insulin", "protocol": "as §2"}, "[8]": {"system": "Medalist fibroblasts", "assay": "p-Tyr of insulin receptor beta subunit immunoblot", "conditions": "100 nM insulin", "protocol": "as §1"}, "[9]": {"system": "control fibroblasts", "assay": "p-Tyr of insulin receptor beta subunit immunoblot", "conditions": "controls, 100 nM insulin", "protocol": "as §1"}, "[10]": {"system": "Medalist fibroblasts", "assay": "VEGF protein secreted to the medium (ELISA)", "from_the_text": "Skin were obtained from 26 Medalists with various complications and from 7 age-matched non-diabetic controls during post-mortem period. Primary fibroblast cultures were derived from human skin samples, sustained in DMEM (10-027, Cellgro Inc.) supplemented with 10% heat inactivated fetal bovine serum, over a period of 4 weeks, in a 6-well plate, with media supplementation every other day. Subsequently, as fibroblasts emerged from the primary explant, a brief trypsinization (0.25% Trypsin) was used to separate and further expand the cells in a 10 cm^2 plate. In all experiments fibroblasts were used between passages 2-5.\nas §1\nThe transfection of siRNA was performed using the Ambion Silencer Select Validated siRNA kit for primary cells (Ambion by Life Technology, Carlsband, Calif.), in 60-70% confluent fibroblast. For evaluating insulin's effect on VEGF production, cells were washed twice with PBS, and starved overnight with DMEM containing 1% BSA. Insulin (100 nM) was added to each for additional 16 h. After incubation, media were collected for VEGF measurement by ELISA and the cell lysate were collected for measuring protein concentration.\nProtein levels of VEGF in the medium were measured using Quantikine R&D System kit (Minneapolis, Minn.). This kit determines mainly VEGF165. Glycated hemoglobin (HbA1c) was determined by HPLC (Tosoh G7 and 2.2, Tokyo, Japan). Serum creatinine was determined by spectrophotometry. Urine albumin and creatinine were determined by turbidimetric methods. Serum C-peptide was determined by RIA (Beckman Coulter, Inc, Fullerton, Calif.)."}, "[11]": {"system": "Medalist fibroblasts", "assay": "Scratch wound migration assay", "conditions": "10 ng/ml PDGF-BB or 100 nM insulin for 12 h", "protocol": "(§3) Scratch wound migration assay—100% Confluent starved Medalist or control fibroblasts wounded, followed by incubation with 10 ng/ml PDGF-BB or 100 nM insulin for 12 hours. Phase contrast images of wounded areas were taken at time 0, 4, 6, 8 and 12 hours after stimulation, and migration was determined as described before (Ito et al., Am J Physiol Lung Cell Mol Physiol. 2014 Jul. 1; 307(1):L94-105)."}, "[12]": {"system": "control fibroblasts", "assay": "Scratch wound migration assay", "conditions": "10 ng/ml PDGF-BB or 100 nM insulin for 12 h", "protocol": "as §3"}, "[13]": {"system": "Medalist fibroblasts", "assay": "VEGF protein secreted to the medium (ELISA)", "conditions": "fibroblasts from Medalists compared to controls; 10 ng/ml TGF for 24 hours"}, "[14]": {"conditions": "fibroblasts of Medalists with CVD"}, "[15]": {"conditions": "fibroblasts of Medalists without CVD"}}}
{"molecule": "insulin", "values": [{"measurement": "VEGF production, fold", "setting": "[1]; Ad-GFP infected control fibroblasts, with 100 nM insulin 16 hours", "value": "2.89±0.67", "unit": "fold"}, {"measurement": "increase in VEGF protein levels", "setting": "[1]; fibroblasts from controls, 100 nM insulin", "value": 66, "unit": "%"}, {"measurement": "IRS1 tyrosine phosphorylation at site 649 (p-Tyr649), increase", "setting": "[2]; [14]", "value": 34, "unit": "%"}, {"measurement": "IRS1 tyrosine phosphorylation at site 911 (p-Tyr911), increase", "setting": "[2]; [14]", "value": 26, "unit": "%"}, {"measurement": "IRS1 tyrosine phosphorylation at site 649 (p-Tyr649), increase", "setting": "[2]; [15]", "value": 63, "unit": "%"}, {"measurement": "IRS1 tyrosine phosphorylation at site 911 (p-Tyr911), increase", "setting": "[2]; [15]", "value": 40, "unit": "%"}, {"measurement": "IRS1 tyrosine phosphorylation at site 649 (p-Tyr649), increase", "setting": "[3]", "value": 53, "unit": "%"}, {"measurement": "IRS1 tyrosine phosphorylation at site 911 (p-Tyr911), increase", "setting": "[3]", "value": 52, "unit": "%"}, {"measurement": "p-AKT increase compared to untreated cells", "setting": "[4]", "value": 2, "unit": "fold"}, {"measurement": "p-AKT increase", "setting": "[4]; [14]", "value": 1.8, "unit": "fold"}, {"measurement": "p-AKT increase", "setting": "[4]; [15]", "value": 2.4, "unit": "fold"}, {"measurement": "p-AKT increase", "setting": "[5]; 100 nM insulin 10 minutes (CVD comparison experiment)", "value": 4.0, "unit": "fold"}, {"measurement": "p-AKT increase compared to untreated cells", "setting": "[5]", "value": 3.6, "unit": "fold"}, {"measurement": "stimulation of VEGF mRNA production", "setting": "[6]", "value": "failed to significantly stimulate"}, {"measurement": "increase in VEGF mRNA", "setting": "[7]", "value": 2.4, "unit": "fold"}, {"measurement": "p-Tyr of the insulin receptor beta subunit, increase", "setting": "[8]; Medalists with CVD", "value": 4.7, "unit": "fold"}, {"measurement": "p-Tyr of the insulin receptor beta subunit, increase", "setting": "[8]; Medalists without CVD", "value": 4.9, "unit": "fold"}, {"measurement": "p-Tyr of the insulin receptor beta subunit, increase", "setting": "[9]", "value": 5.2, "unit": "fold"}, {"measurement": "VEGF secretion, fold increase", "setting": "[10]; Ad-GFP infected Medalist fibroblasts, with 100 nM insulin 16 hours", "value": "1.51±0.18", "unit": "fold"}, {"measurement": "VEGF secretion, fold increase above basal", "setting": "[10]; Medalist fibroblasts, insulin alone, siRNA experiment", "value": "1.28±0.10", "unit": "fold"}, {"measurement": "fold increase in VEGF levels above basal", "setting": "[10]; Medalist fibroblasts, 100 nM insulin alone, GFX experiment", "value": "1.59±0.10", "unit": "fold"}, {"measurement": "fold increase in VEGF levels above basal", "setting": "[10]; Medalist fibroblasts, 100 nM insulin alone, rottlerin experiment", "value": "1.50±0.31", "unit": "fold"}, {"measurement": "VEGF protein levels after insulin stimulation", "setting": "[10]; Medalists with CVD (basal 75.5±13.7)", "value": "106.0±12.0", "unit": "pg/mg protein"}, {"measurement": "VEGF protein levels after insulin stimulation", "setting": "[10]; Medalists without CVD (basal 57.5±8.5)", "value": "99.1±8.4", "unit": "pg/mg protein"}, {"measurement": "stimulation of VEGF protein", "setting": "[10]; fibroblasts from Medalists, 100 nM insulin", "value": "failed to significantly stimulate"}, {"measurement": "cell migration", "setting": "[11]", "value": "failed to significantly increase"}, {"measurement": "cell migration", "setting": "[12]", "value": 1.7, "unit": "fold"}]}
{"molecule": "COc1cccc(-c2cc(=O)c3ccccc3o2)c1N", "note": "[PD98059]", "values": [{"measurement": "insulin-stimulated VEGF production", "setting": "[10]; Medalist fibroblasts, 100 nM insulin in presence of 100 nM wortmanin or 10 μM PD98059", "value": "but not PD98059, significantly inhibited"}]}
{"molecule": "CN(C)C[C@@H]1CCn2cc(c3ccccc32)C2=C(C(=O)NC2=O)c2cn(c3ccccc23)CCO1", "note": "[RBX, Ruboxistaurin]", "values": [{"measurement": "insulin stimulated VEGF secretion", "setting": "[10]; Medalist fibroblasts, 100 nM insulin with 100 nM RBX", "value": "failed to increase"}]}
{"molecule": "TGF-β", "values": [{"measurement": "VEGF induced by TGF-β", "setting": "[13]", "value": "blunted"}]}
{"molecule": "CC(=O)c1c(O)c(C)c(O)c(Cc2c(O)c3c(c(C(=O)/C=C/c4ccccc4)c2O)OC(C)(C)C=C3)c1O", "note": "[rottlerin, Rottlerin]", "values": [{"measurement": "fold increase in VEGF levels above basal", "setting": "[10]; Medalist fibroblasts, inhibitor + 100 nM insulin (GFX or 3 uM rottlerin)", "value": "5.25±0.56", "unit": "fold"}, {"measurement": "fold increase in VEGF levels above basal", "setting": "[10]; Medalist fibroblasts, inhibitor alone, no insulin (GFX or 3 uM rottlerin)", "value": "3.74±0.49", "unit": "fold"}]}
{"molecule": "CN(C)CCCn1cc(C2=C(c3c[nH]c4ccccc34)C(=O)NC2=O)c2ccccc21", "note": "[GFX, 2[1-(3-dimethylaminopropyl)-1H-indol-3-yl]-3-(1H-indol-3-yl)-maleimide]", "values": [{"measurement": "fold increase in VEGF levels above basal", "setting": "[10]; Medalist fibroblasts, inhibitor + 100 nM insulin (10 mM GFX or 3 uM rottlerin)", "value": "4.74±0.94", "unit": "fold"}, {"measurement": "fold increase in VEGF levels above basal", "setting": "[10]; Medalist fibroblasts, inhibitor alone, no insulin (10 mM GFX or 3 uM rottlerin)", "value": "2.55±0.43", "unit": "fold"}]}
{"molecule": "PDGF-BB: platelet-derived growth factor, 10 ng/ml stimulus (protein, UniProt P01127 82-190, looked up, homodimer BB, platelet-derived growth factor, 10 ng/ml stimulus) Platelet-derived growth …: SLGSLTIAEPAMIAECKTRTEVFEISRRLIDRTNANFLVWPPCVEVQRCSGCCNNRNVQCRPTQVQLRPVQVRKIEIVRKKPIFKKATVTLEDHLACKCETVAAARPVT", "values": [{"measurement": "p-AKT increase compared to untreated cells", "setting": "[4]", "value": 7, "unit": "fold"}, {"measurement": "p-AKT increase compared to untreated cells", "setting": "[5]", "value": 7, "unit": "fold"}, {"measurement": "cell migration", "setting": "[11]", "value": "increased cell migration significantly"}, {"measurement": "cell migration", "setting": "[12]", "value": "increased cell migration significantly"}]}
